Tested on: venous thrombosis
Assay: venous thrombosis test in rats (venous stasis with hypercoagulation, Wessler technique, factor Xa), oral administration
Format: in vivo
Settings: dose 6 mg/kg, thrombosis induced 2 h after administration, male Wistar rats
Protocol: The antithrombotic activity of the compounds according to the invention was studied in vivo in rats by virtue of a test that reproduces a venous thrombosis. The venous thrombosis was induced according to the protocol described in Thromb. Haemost. 1992, 67 (1), 176-179. The activity by oral administration was studied according to the following operating protocol: The experiment is carried out on male Wistar rats, not fasting, weighing 250 to 280 g and divided up into groups, each of 8 to 10 animals. The test products are administered orally (by tube) in solution or in suspension in a solution of methylcellulose (0.5% in water). The concentration of the compounds is calculated such that an amount of solution of 10 ml/kg is absorbed orally. A thrombosis is induced at a time T (between 2 hours and 8 hours) after administration of the product, and the thrombus formed is removed and weighed. In order to induce this thrombosis, a venous stasis with hypercoagulation is produced, according to the technique described by WESSLER (J. Applied Physiol. 1959, 943-946) using, as hypercoagulating agent, a solution of activated factor X (Xa), supplied by the company Biogenic (Montpellier), and having a concentration of 7.5 nKat/kg. The venous stasis is produced exactly 10 seconds after the injection of the hypercoagulating agent. The activity of the compounds tested was verified at various doses, after they were administered. The thrombosis was induced between 2 hours and 8 hours after administration of the compound.

Structure (SMILES) | Activity (%): percentage inhibition of the formation of the thrombus relative to the weight of the thrombus formed in the absence of the compound [%]
Cc1cn2cccc(O[C@@H]3SC[C@@H](O)[C@H](O)[C@H]3O)c2n1 [Example 2, 2-methylimidazo[1,2-α]pyridin-8-yl 5-thio-β-D-xylopyranoside] | 94
CC(=O)c1cc2cccc(O[C@@H]3SC[C@@H](O)[C@H](O)[C@H]3O)c2o1 [Example 8, 2-acetyl-7-benzofuranyl 5-thio-β-D-xylopyranoside] | 91
Cc1nc2cc(O[C@@H]3SC[C@@H](O)[C@H](O)[C@H]3O)ccc2s1 [Example 12, 2-methyl-5-benzothiazolyl 5-thio-β-D-xylopyranoside] | 74
O[C@@H]1[C@@H](O)[C@H](Oc2cccc3ocnc23)SC[C@H]1O [Example 16, 4-benzoxazolyl 5-thio-β-D-xylopyranoside] | 80
O[C@@H]1[C@@H](O)[C@H](Oc2cccc3ccoc23)SC[C@H]1O [Example 18, 7-benzofuranyl 5-thio-β-D-xylopyranoside] | 62
O[C@@H]1[C@@H](O)[C@H](Oc2cccn3ncnc23)SC[C@H]1O [Example 39, [1,2,4]triazolo[1,5-a]pyridin-8-yl 5-thio-β-D-xylopyranoside] | 100
O=C(O)C(F)(F)F.O=C(O)Cc1cn2cccc(O[C@@H]3SC[C@@H](O)[C@H](O)[C@H]3O)c2n1 [Example 43, 8-[(5-thio-β-D-xylopyranosyl)oxy]-imidazo[1,2-α]pyridine-2-acetic acid, salt with trifluoroacetic acid] | 53

— US7652032B2, “5-Thioxylopyranose compounds” (Laboratoires Fournier S.A., priority 2007, dated 2010)
